Experimental data published in patent EP0372541A1, “Method for imparting immunosuppression” (priority 1988, dated 1990).

Legend:
[1] = test system: cyclosporine-treated renal transplant recipients; test: Randomized, double-blind, placebo controlled clinical study in renal transplant recipients on cyclosporine; format: in vivo, human; details: for Acute Rejection / Creatinine / Creatinine Clearance: 200 µg Q.I.D. with cyclosporine
From the text: A randomized, double-blind, placebo controlled study was designed: (1) to determine the safety and efficacy of a PGE₁ prostaglandin in reducing cyclosporine-induced nephrotoxicity in renal transplant recipients; and (2) to examine the effects of the PGE₁ prostaglandin on the incidence rate of clinically important events such as acute transplant rejection.
The PGE, prostaglandin evaluated was misoprostol, ((±) methyl 11α, 16-dihydroxy-16-methyl-9-oxoprost-13E-en-1-oate). Subjects received the PGE₁ prostaglandin in dosages of 200 µg or a placebo four times a day (Q.I.D.) for the first twelve weeks following transplantation. A study population of 77 subjects was evaluated. Efficacy was assessed by a serial comparison of renal function and by measuring the duration and functional severity of transplant rejection, cyclosporine nephrotoxicity, and other episodes of acute renal failure in the PGE₁ prostaglandin and the placebo groups. Serial measurements of serum creatinine and creatinine clearance were used to determine trends and differences in renal function between treatment groups.
The subjects in the clinical study were first stratified into two groups according to the source of the allograft, cadaver or living-related donor. Members of each group were assigned at random in the order of enrollment to receive the PGE₁ prostaglandin or the placebo according to a computer-generated assignment schedule prepared prior to the start of the study. The purpose of this approach was to guarantee adequate randomization of subjects as a function of allograft source and probable post-transplantation function.
The administration of the prostaglandin began with the first dose of cyclosporine. The subjects received the .prostaglandin Q.I.D. given 30-60 minutes p.c. (after a meal) and h.s. (at night). The prostaglandin initially could be administered via a nasogastric tube. Following discharge of the patient from the hospital. the patient began to administer the placebo or prostaglandin and recording the dosing in a diary. The test article dosing remained one tablet Q.I D. continuing the 30-60 minute p.c and h.s. schedule.
Hematology and chemistry profiles were obtained on the first and seventh post-transplantation days and again after four weeks. A chemistry profile was obtained at eight and twelve weeks. A urinalysis was obtained on the first post-operative day and again after four weeks.
Twenty-four hour creatinine clearance measurements were obtained on post-operative days one, three, and seven, then weekly for three weeks and at four week intervals thereafter until the study was terminated.
Serum creatinine measurements were obtained on postoperative days 1, 3 and 7, and then at weeks 4, 8, 12 and 16.
Measurement of trough cyclosporine levels were required on days one, three, five and seven; twice during each of weeks two, three and four; and at least once during weeks eight, twelve and sixteen.
Acute renal failure was defined as the presence of any of the following: • 1) Any change in renal function which prompted the principal investigator to perform a diagnostic maneuver (e.g., measure of serum creatinine concentration or urinary sodium concentration) or therapeutic maneuver (e.g., give intravenous fluids) to investigate or treat the change. • 2) A rise in serum creatinine concentration from a stable base line of at least 0.2 mg/dl/day for two days or 0.3 mg/dl in one day. • 3) A fall in urine output to less than an average of 25 ml per hour for more than 24 hours.
After twelve weeks of treatment and four additional weeks of observation, the subject underwent a physical examination and a complete medical history was reviewed. The following laboratory tests were also obtained: hematology, PT/PTT, chemistry, urinalysis. creatinine clearance, cyclosporine level and serum beta HCG (where appropriate). In addition, any other measurements of creatinine concentration or clearance obtained during the post-treatment period were recorded.

[2] = test system: mixed lymphocyte response; test: Mixed lymphocyte response (MLR) assay, tritiated thymidine incorporation; format: cell-based; details: Figures 9 and 10; for inhibition of the mixed lymphocyte response in combination with cyclosporine: free acid added to cyclosporine; for inhibition of the mixed lymphocyte response in combination with methylprednisolone: free acid added to methylprednisolone
From the text: The mixed lymphocyte response is a clinically useful predictor of the immunosuppressive activity of drugs.The mixed lymphocyte response assay data shown below and in Figures 7-10 were obtained with the following method. A stimulator panel of Epstein-Barr virus (EBV) transformed continuous lymphoblastoid cell lines was employed to magnify responses. There were equal numbers of four cell lines with eight different HLA-DR antigens (two per cell line). Stimulator cells were irradiated (13,000 rad) before suspension in a modified RPMI medium. Responder lymphocytes were prepared from heparinized recipient blood by density gradient separation before suspension in glutamine with antibiotic-supplemented RPMI medium containing 10% autologous serum. Equal numbers of responder and stimulator cells (1x 10⁵ in 0.1 ml) were incubated with 0.05 ml of medium (control) or varying concentrations of the three prostaglandin analogs (misoprostol, enisoprost and misoprostol-free acid) or methylprednisolone or cyclosporine or combinations of these agents.
Following incubation at 37°C and 5% CO₂ for five days, one microcurie of tritiated thymidine was added and cell cultures incubated for six hours. Cells were then harvested. MLR responses for the three different prostaglandin analogs were then compared for several different concentrations (Figure 7). The effects of the prostaglandins were also compared to those of the control ethanol diluent (Figure 8).

[3] = 1 Month after renal transplantation
[4] = 2 Months after renal transplantation
[5] = 3 Months after renal transplantation
[6] = listed as PGE₁ prostaglandin free acid

CCCCC(C)(O)C/C=C/[C@H]1[C@H](O)CC(=O)[C@@H]1CCCCCCC(=O)OC (mixture of isomers) [PGE₁, (±) methyl 11α, 16-dihydroxy-16-methyl-9-oxoprost-13E-en-1-oate]
Acute Rejection [1, 3]: 3 first episode/mo | Creatinine [1, 3]: 1.6 ± 0.2 mg/dL | Creatinine Clearance [1, 3]: 73 ± 5 ml/min/1.73m2 | Acute Rejection [1, 4]: 2 first episode/mo | Creatinine [1, 4]: 1.4 ± 0.1 mg/dL | Creatinine Clearance [1, 4]: 77 ± 6 ml/min/1.73m2 | Acute Rejection [1, 5]: 2 first episode/mo | Creatinine [1, 5]: 1.4 ± 0.1 mg/dL | Creatinine Clearance [1, 5]: 81 ± 5 ml/min/1.73m2 | renal function ([1]; cyclosporine-treated renal transplant recipients, versus placebo): improved renal function | acute rejection versus placebo ([1]; during the three months of treatment, p = 0.015): significantly reduced | cyclosporine absorption (cyclosporine dosage and trough blood levels by HPLC) ([1]; human, in vivo): no interference with cyclosporine absorption | cyclosporine nephrotoxicity (incidence rate of first episodes) ([1]; versus placebo, Figure 5): no increase in cyclosporine nephrotoxicity

CCCCC(C)(O)CC=CC1C(O)CC(=O)C1CCCCCCC(=O)O (racemic) [misoprostol free acid]
inhibition of the mixed lymphocyte response in combination with cyclosporine [2]: clear evidence of enhancement of immunosuppressive activity | inhibition of the mixed lymphocyte response in combination with cyclosporine [2, 6]: larger than additive effect | inhibition of the mixed lymphocyte response in combination with methylprednisolone [2]: clear evidence of enhancement of immunosuppressive activity | inhibition of the mixed lymphocyte response in combination with methylprednisolone [2, 6]: larger than additive effect
